Laboratory results: patent US20150328183A1, “PHARMACEUTICAL COMPOSITION AND USE FOR APPLYING 7,7''-DIMETHOXYAGASTISFLAVONE IN INHIBITING TUMOR METASTASIS” (NATIONAL CHIAO TUNG UNIVERSITY, priority 2014, published 2015)

Tests used:
[1] = tested on: B16F10 mouse melanoma cells; assay: Transwell (matrigel-coated) migration assay for metastasis inhibition; type: cell-based; conditions: 1 μg/ml DMGF, 4 hours, 8 μm film coated with matrigel, compared to the group without DMGF (100%)
Procedure: B16F10 mouse melanoma cells were maintained in 1% antibiotics of Dulbecco's modified Eagle's medium (DMEM; Gibco/Invitrogen, Carlsbad, Calif., USA) supplemented with heat-inactivated 10% fetal bovine serum (Gibco/Invitrogen, Carlsbad, Calif., USA). Antibiotic were preferably penicillin/streptomycin/amphotericin. Cell suspension (3×10^4) were treated with or without 1 μg/ml DMGF in the upper well of a transwell plate. The well without DMGF was used as a control group of experiment. DMEM cell culture medium was added into the upper and lower wells, and the lower well was further added fetal bovine serum, and then maintained in the incubator under 37° C. In other embodiment, B16F10 cell suspension was allowed to incubate in the 4 or 6 upper wells of transwell plate to comduct second repeat or duplicate tests, which is not for limited sense of present invention.
The bottom side of the upper well, which is between the upper well and the lower well, includes a transparent film. The present example applied 8 μm (coated with matrigel) transparent films for tumor metastasis test. […] The cells on the top of the filter were removed with a cotton swab and migrated cells on the underside were fixed with methanol, stained with 50 μg/ml propidium iodide and counted with a fluorescence microscope. […]

[2] = tested on: Aspergillus flavus; conditions: cited from earlier work
[3] = tested on: SVEC4-10 mouse vascular endothelial cells; assay: Polymerization of fibrous actin (Phallotoxin/DAPI staining); type: cell-based; conditions: SVEC4-10 cells, 16 ng/ml VEGF, 1 μg/ml DMGF, 3 to 4 hours
Procedure: Tissue culture technology for culturing SVEC4-10 mouse vascular endothelial cells can be referred to the culturing method of B16F10 in example 2, and is not repeated here. SVEC4-10 cell suspension (3×10^4) were incubated in at least two plates and treated with 16 ng/ml VEGF (Upstate Inc., Lake Placid, N.Y., USA) medium in the two 96-well plate, and one of the plate was further added with 1 μg/ml DMGF as an experiment group. After adding the culture medium and the above-mentioned compound, SVEC4-10 cells were incubated in 37° C. incubator for 3 to 4 hours and then dyed with diamidino-phenyl-indole (DAPI) and Phallotoxin, respectively. Diamidino-phenyl-indole can be combined with double-stranded DNA to label the position of nucleus. Phallotoxin capable of combining with fibrous actin is often used as the dye for observing the polymerization of fibrous actin. After dyeing, the polymerization of fibrous actin was observed under 40 magnification microscopic lens.
“A” (filaments or spot) in FIG.3 marks the structure of fibrous actin, and “B” (circle) in FIG. 3 marks the position of nucleus. […] Polymerization of fibrous actin is correlated with cell migration in which polymerization of fibrous actin happens. Cell migration is the early step of tumor metastasis.

[4] = tested on: Matrix metalloproteases-2 (MMP2) expression in B16F10 cells; assay: MMP2 RNA expression by real-time PCR; type: cell-based, mouse; conditions: 1 μg/ml DMGF, 0 hour group defined as 1 times
Procedure: Culturing condition of B16F10 cells with tissue culture techniques is the same as example 2. B16F10 cell suspension was incubated in at least three plates, two of which were added biflavonoid DMGF (final concentration 1 μg/ml) and set back to 37° C. incubator and incubating for 12 and 24 hours, respectively. The culture medium and additional compound were sucked, and then the plate was washed with PBS. B16F10 cells were collected with trypsin-EDTA. And the third well was processes without DMGF, colleting B16F10 cells according to the above-mentioned method. Then total B16F10 cellular RNA was extracted with TRIzol (Invitrogen Life Technologies, Carlsbad, Calif., USA) and reverse-transcribed into cDNA using the extracted RNA template. The cDNA was further a template for real-time polymerase chain reaction (Real-time PCR). The forward primer and the reverse primer of MMP2 were [NT] and [NT], repectively, thus quantified the MMP2 expression level in the above-mentioned time period of control group and experiment group of the present example. In detail, reverse-transcription PCR was treated with SuperScript First-Strand system (Invitrogen Life Technologies). […] While the MMP2 expression level of “0 hour” group is defined as 1 times, the MMP2 expression level of “12 hours” group and “24 hours” group are both calculated according to the “0 hour” group.

[5] = tested on: TNF-α; assay: LPS-induced TNF-α secretion by mouse splenocytes (ELISA); type: cell-based; conditions: 1 μg/ml LPS, 1.25 μg/ml DMGF, 72 hours; group without DMGF up to 200 pg/ml
Procedure: 1×10^6 mouse splenocyte suspension was seeded in 24-well culture plate supplemented with 1 μg/ml lipopolysaccharide (LPS) for inducing the immune cells of mouse splenocyte secreting TNF-α, and 0, 0.3125, 0.625, 1.25 μg/ml DMGF to each group. The mouse splenocyte were further incubated in 37° C. incubator for 72 hours. The culture medium was collected and tested for TNF-α concentration by ELISA kit for detecting TNF-α.
With the use of increased DMGF dose level, the lower the TNF-α concentration. For example, mouse splenocyte treated with 1.25 μg/ml DMGF secreted TNF-α concentration fell to 60 pg/ml. With reference to the result of example 6, pharmaceutical composition with DMGF has the ability to inhibit immune cells secreting TNF-α to inhibit inflammation. Since inflammation is related to improving angiogenesis and invasion, migration or other pathological effects of tumor cells, pharmaceutical composition with DMGF has the ability to inhibit inflammation, thus inhibiting tumor metastasis.

[6] = tested on: B16F10 cells; assay: Anti-metastatic activity in mice bearing B16F10 tumors (tumor volume); type: in vivo; conditions: C57BL/6 mice with B16F10 tumors, 10 mg/kg and 50 mg/kg DMGF injected once every 2 to 3 days
Procedure: At least 3 8-week-old C57BL/6 mice (female) were i.v. injected with 1×10^6 B16F10 cells. Mice bearing tumors with more than 30 mm^3 were injected with PBS, 10 mg/kg DMGF and 50 mg/kg DMGF once every 2 to 3 days. […] That is, with reference to the result of example 5, pharmaceutical composition with DMGF indeed inhibits tumor cell migration, thus inhibiting tumor metastasis.

Structure (SMILES): COc1cc2oc(-c3ccc(O)cc3)cc(=O)c2c(O)c1-c1c(OC)cc(O)c2c(=O)cc(-c3ccc(O)cc3)oc12 [DMGF, 7,7″-Dimethoxyagastisflavone]
- reduction in the capacity of B16F10 cells to migrate through the membrane of transwell chambers [1]: about 65%
- inhibition of aflatoxin secretion [2]: inhibiting Aspergillus flavus secreting aflatoxin
- polymerization of fibrous actin [3]: multiple dots without polymerization of fibrous actin
- MMP2 RNA expression level relative to 0 hour group ([4]; 12 hours): 0.5 times
- MMP2 RNA expression level relative to 0 hour group ([4]; 24 hours): 0.3 times
- TNF-α concentration secreted by mouse splenocyte [5]: 60 pg/mL
- tumor volume versus PBS-treated mouse [6]: significantly smaller
